Assay results published in patent US9388226B2, “Peptides modulating the activity of macrophages, useable for the treatment of rheumatoid arthritis” (Universite Paul Sabatier, priority 2006, dated 2016).
Non-standard residues stand in square brackets, D forms with d. No end group written: not given here. Cit = NC(=O)NCCC[C@H](N)C(=O)O

Legend:
[1] = test system: ACPAs in sera from patients suffering from RA; assay: Reactivity of fibrin-derived citrullinated peptides with sera from RA patients having ACPAs; format: binding, human; conditions: 20 sera from RA patients having detectable ACPAs
Source text: Among these peptides, those which bear immunodominant epitopes (recognized by a large number of sera from patients suffering from RA) are given in table 2. The 20 sera tested correspond to a series originating from patients suffering from RA having ACPAs detectable by means of multiple tests for detecting these autoantibodies and which, taken as a whole, make it possible to represent the heterogeneity of the specificity profiles encountered in the patients.

[2] = test system: ACPA binding to citrullinated human fibrinogen; assay: ELISA competition assay: inhibition of the reactivity of IgG ACPA+ with respect to citrullinated fibrinogen; conditions: IgG ACPA+ 16 μg/ml; competitor 0.006 to 1.56 mg/ml added 2 h before ELISA; FIG. 2
Method: 96-well microtitration plates (MaxiSorp, Nunc, VWR International, Fontenay sous Bois, France) are coated with citrullinated human fibrinogen (prepared as indicated in example 1) at a rate of 100 μl/well of a solution at 5 μg/ml in PBS, pH 7.4, overnight at 4° C. The plates are then saturated with a solution of PBS containing 2% of BSA (PBS-2% BSA) (180 μl/well). After this step, the IgG ACPA+ (prepared as indicated in example 1), diluted beforehand to 16 μg/ml in PBS-2% BSA in the presence or absence of increasing amounts of the competitor peptides α36-50cit38, 42 and/or β60-74cit60, 72, 74 (each at a concentration ranging from 0.006 to 1.56 mg/ml) added 2 h before the ELISA assay, are added. The concentration used for the IgG ACPA+ was chosen because it makes it possible to obtain an OD of between 1 and 1.5 in the absence of competitor peptide. Citrullinated or noncitrullinated fibrinogen (0.0002 to 1.56 mg/ml) and the noncitrullinated forms of the α36-50cit38, 42 and β60-74cit60, 72, 74 peptides (respectively referred to as α36-50 and β60-74) are used as control. The ACPA binding is then detected with peroxidase-labeled anti-human IgG goat IgGs (SouthernBiotech, Birmingham, Ala.) diluted to 1/9000 in PBS-2% BSA. All the incubations are carried out for 1 h at 4° C. and are followed by washes in PBS-0.1% Tween 20.
The results of this ELISA competition assay are illustrated in FIG. 2. The data are representative of 3 experiments carried out with two different preparations of IgG ACPA+. The results are expressed as degree of inhibition of the reactivity obtained in the absence of competitor peptide.

human macrophages = assay: Inhibition of the stimulation of human macrophages by ICs associating ACPAs and citrullinated fibrinogen, TNF-α in supernatants; format: cell-based; conditions: IgG ACPA+ 1.13 mg/ml; for TNFα level: citrullinated fibrinogen plates
Method: The reconstitution of ICs associating ACPAs and citrullinated fibrinogen is carried out by coating flat-bottomed 96-well culture plates (Nunclon delta, Nunc, Roskilde, Denmark), under sterile conditions, with human citrullinated fibrinogen at 10 μg/ml, added at a rate of 50 μl/well and incubated overnight at 4° C. The plates are subsequently saturated in PBS, pH 7.4, 2% BSA for 1 hour at 4° C. (180 μl/well). After 3 washes in PBS, pH 7.4, 0.1% Tween-20, the wells are incubated for 2 hours at 4° C. with 100 μl of IgG ACPA+ at various concentrations (ranging from 9 to 0.28 mg/ml) diluted in PBS containing 2% BSA and 2M NaCl. Negative controls are made up in the same way, using either noncitrullinated human fibrinogen as antigen coated at the bottom of the plate, or control IgGs as antibodies. Wells coated only with citrullinated or noncitrullinated human fibrinogen and saturated in PBS, pH 7.4, 2% BSA are also used as negative controls.
After 3 washes in PBS, pH 7.4, 0.1% Tween-20, then 3 washes in PBS, the macrophages are added at a rate of 50000 viable cells/well in a volume of 200 μl. After incubation for 24 hours at 37° C. under an atmosphere containing 5% CO2, the supernatants are recovered (160 μl/well) and are rapidly frozen at −20° C. until they are analyzed. The negative control for activation is carried out using macrophages in macrophage-SFM medium alone. Macrophages placed on aggregated IgGs immobilized at the bottom of the culture plates by passive adsorption (at a rate of 100 μl of a solution at 5 μg/ml per well), or placed in the presence of bacterial lipopolysaccharide (LPS, Escherichia coli 0.55:B5 at a final concentration of 0.5 μg/ml; Sigma-Aldrich Chimie), are used as controls for the ability of the macrophages to respond to a stimulus inducing TNF-α synthesis.
An ELISA assay kit for human TNF-α, comprising a capture antibody, a detection antibody and recombinant human TNF-α for making up a calibration range of 7.8 to 500 pg/ml, was used to assay this cytokine in the culture supernatants (Human TNF-alpha BD OptEIA™ ELISA et, BD Biosciences Pharmingen, Pont-de-Claix, France).
The preparation and the stimulation of the macrophages are carried out exactly under the conditions described in example 1, except for the fact that the reconstitution of ICs is carried out with IgG ACPA+ diluted to 1.13 mg/ml in PBS containing 2M of NaCl and 2% of BSA in the presence or absence of the competitor peptide β60-74cit60, 72, 74 at two concentrations (0.8 and 4 mg/ml) added 2 h before the incubation with the citrullinated fibrinogen immobilized at the bottom of the culture plates. Competitions with citrullinated or noncitrullinated fibrinogen (0.4 mg/ml) and also with the noncitrullinated peptide β60-74 (0.8 and 4 mg/ml), are also carried out as control.

| Substance | NUMBER OF REACTIVE SERA OUT OF THE 20 TESTED [1] | percentage inhibition of the ACPA binding to the citrullinated fibrinogen, plateau value [2] | also measured |
| --- | --- | --- | --- |
| GPXVVEXHQSACKDS (GP[Cit]VVE[Cit]HQSACKDS) [α36-50cit38, 42, fibrinogen α-chain derived citrullinated peptide, X = citrullyl residue] | 12 | approximately 15% | – |
| SGIGTLDGFXHXHPD (SGIGTLDGF[Cit]H[Cit]HPD) [α501-515cit510, 512, fibrinogen α-chain derived citrullinated peptide, X = citrullyl residue] | 9 | – | – |
| VDIDIKIXSCXGSCS (VDIDIKI[Cit]SC[Cit]GSCS; cysteine pairing not given here) [α171-185cit178, 181, fibrinogen α-chain derived citrullinated peptide, X = citrullyl residue] | 9 | – | – |
| XGHAKSXPVXGIHTS ([Cit]GHAKS[Cit]PV[Cit]GIHTS) [α621-635cit621, 627, 630, fibrinogen α-chain derived citrullinated peptide, X = citrullyl residue] | 10 | – | – |
| XPAPPPISGGGYXAX ([Cit]PAPPPISGGGY[Cit]A[Cit]-NH2) [β60-74cit60, 72, 74, fibrinogen β-chain derived citrullinated peptide, X = citrullyl residue] | 14 | approximately 60% | TNFα level (human macrophages; competitor peptide 0.8 mg/ml): approximately 40 pg/ml; TNFα level (human macrophages; competitor peptide 4 mg/ml): less than 20 pg/ml; effect on TNF-α production in response to the ICs (in words) (human macrophages; competitor 0.8 and 4 mg/ml (peptide)): dose-dependent inhibition |
| citrullinated fibrinogen: purified human fibrinogen incubated with rabbit skeletal muscle peptidylarginine deiminase | – | approximately 80% | TNFα level (human macrophages; fibrinogen competitor 0.4 mg/ml): approximately 20 pg/ml |
